Experiment [1] has as its target T1, Glucagon-like peptide 1 receptor (Homo sapiens, UniProt P43220). Nature of the experiment: Agonist activity at human GLP-1R expressed in HEK293 cells assessed as stimulation of cAMP accumulation incubated for 20 mins in presence of 0% HSA. Format: functional, cell-based.
Experiment [2] addresses T1, Glucagon-like peptide 1 receptor. Nature of the experiment: Agonist activity at human GLP-1R expressed in HEK293 cells assessed as stimulation of cAMP accumulation incubated for 20 mins in presence of 4.4% HSA. Format: functional, cell-based.
Experiment [3] has the same target. As to the kind of experiment: Ratio of EC50 for agonist activity at human GLP-1R expressed in HEK293 cells in presence of 4.4% HSA to EC50 for agonist activity at human GLP-1R expressed in HEK293 cells in presence of 0% HSA. Format: cell-based.

Our source for the EC50 and Ratio EC50 values is ChEMBL document CHEMBL4699602, “Stapled and Xenopus Glucagon-Like Peptide 1 (GLP-1)-Based Dual GLP-1/Gastrin Receptor Agonists with Improved Metabolic Benefits in Rodent Models of Obesity and Diabetes” (J Med Chem, 2020).

Where a SMILES comes first, the peptide text is derived from it.

T1 sequence (P43220 whole entry): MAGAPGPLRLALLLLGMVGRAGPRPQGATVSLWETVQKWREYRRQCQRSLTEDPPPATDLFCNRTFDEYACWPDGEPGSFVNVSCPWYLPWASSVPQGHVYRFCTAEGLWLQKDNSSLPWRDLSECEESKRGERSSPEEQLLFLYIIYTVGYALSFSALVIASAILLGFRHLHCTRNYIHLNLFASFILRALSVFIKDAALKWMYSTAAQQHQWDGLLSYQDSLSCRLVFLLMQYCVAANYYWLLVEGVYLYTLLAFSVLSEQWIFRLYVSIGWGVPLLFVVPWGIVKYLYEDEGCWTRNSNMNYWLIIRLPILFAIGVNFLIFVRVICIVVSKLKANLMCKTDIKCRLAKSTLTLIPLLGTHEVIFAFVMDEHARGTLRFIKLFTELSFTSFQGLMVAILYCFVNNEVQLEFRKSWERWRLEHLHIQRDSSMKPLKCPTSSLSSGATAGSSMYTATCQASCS

`CC[C@H](C)[C@H](NC(=O)[C@H](CC(C)C)NC(=O)[C@H](Cc1c[nH]c2ccccc12)NC(=O)[C@H](CCC(=O)O)NC(=O)[C@@H](NC(=O)[C@H](Cc1ccccc1)NC(=O)[C@@H]1CSC2CC(=O)N(CCC(=O)NC(C(=O)NCCCCCCNC(=O)COCCOCCNC(=O)CCCCCCCCCCCCCCCCC(=O)O)CCCCNC(=O)CCN3C(=O)CC(SC[C@H](NC(=O)[C@H](Cc4ccc(O)cc4)NC(=O)[C@H](CCC(=O)O)NC(=O)[C@@H](NC(=O)[C@@H](NC(=O)[C@H](CC(=O)O)NC(=O)[C@H](CC(N)=O)NC(=O)[C@@H](NC(=O)[C@H](Cc4ccc(O)cc4)NC(=O)[C@@H](NC(=O)CNC(=O)[C@H](CCC(=O)O)NC(=O)C(C)(C)NC(=O)[C@@H](N)Cc4c[nH]cn4)[C@@H](C)O)[C@@H](C)O)C(C)C)[C@@H](C)O)C(=O)N[C@@H](CCC(=O)O)C(=O)N[C@@H](CCC(=O)O)C(=O)N[C@@H](CCC(=O)O)C(=O)N[C@@H](C)C(=O)N[C@@H](C)C(=O)N[C@@H](CCCCN)C(=O)N1)C3=O)C2=O)[C@@H](C)CC)C(=O)N[C@@H](CCCCN)C(=O)NCC(=O)N[C@@H](CCCCN)C(=O)N1CCC[C@H]1C(=O)N[C@@H](CO)C(=O)N[C@@H](CO)C(=O)NCC(=O)N[C@@H](C)C(=O)N1CCC[C@H]1C(=O)N1CCC[C@H]1C(=O)N1CCC[C@H]1C(=O)N[C@@H](CO)C(N)=O` (some centres not stated) (HELM PEPTIDE1{H.[Aib].E.G.T.Y.T.N.D.V.T.E.Y.C.E.E.E.A.A.K.C.F.I.E.W.L.I.K.G.K.P.S.S.G.A.P.P.P.S.[am]}|CHEM1{[O=C(O)CCCCCCCCCCCCCCCCC(=O)NCCOCCOCC(=O)NCCCCCCNC(=O)C(CCCCNC(=O)CCN1C(=O)CC([*:1])C1=O)NC(=O)CCN1C(=O)CC([*:2])C1=O]}$PEPTIDE1,CHEM1,14:R3-1:R1|PEPTIDE1,CHEM1,21:R3-1:R2$$$V2.0): the results for the EC50 in experiment [1] and in experiment [2] were 0.11 nM and 1.3 nM, respectively. The Ratio EC50 in experiment [3] was found to be 11.8.

For the compound `CCCCCCCCCCCCCCCC(=O)NCCCCCCNC(=O)C1CCCCNC(=O)CCN2C(=O)CC(SC[C@H](NC(=O)[C@H](Cc3ccc(O)cc3)NC(=O)[C@H](CCC(=O)O)NC(=O)[C@@H](NC(=O)[C@@H](NC(=O)[C@H](CC(=O)O)NC(=O)[C@H](CC(N)=O)NC(=O)[C@@H](NC(=O)[C@H](Cc3ccc(O)cc3)NC(=O)[C@@H](NC(=O)CNC(=O)[C@H](CCC(=O)O)NC(=O)C(C)(C)NC(=O)[C@@H](N)Cc3c[nH]cn3)[C@@H](C)O)[C@@H](C)O)C(C)C)[C@@H](C)O)C(=O)N[C@@H](CCC(=O)O)C(=O)N[C@@H](CCC(=O)O)C(=O)N[C@@H](CCC(=O)O)C(=O)N[C@@H](C)C(=O)N[C@@H](C)C(=O)N[C@@H](CCCCN)C(=O)N[C@H](C(=O)N[C@@H](Cc3ccccc3)C(=O)N[C@H](C(=O)N[C@@H](CCC(=O)O)C(=O)N[C@@H](Cc3c[nH]c4ccccc34)C(=O)N[C@@H](CC(C)C)C(=O)N[C@H](C(=O)N[C@@H](CCCCN)C(=O)NCC(=O)N[C@@H](CCCCN)C(N)=O)[C@@H](C)CC)[C@@H](C)CC)CSC3CC(=O)N(CCC(=O)N1)C3=O)C2=O` (some centres not stated) (HELM PEPTIDE1{H.[Aib].E.G.T.Y.T.N.D.V.T.E.Y.C.E.E.E.A.A.K.C.F.I.E.W.L.I.K.G.K.[am]}|CHEM1{[CCCCCCCCCCCCCCCC(=O)NCCCCCCNC(=O)C(CCCCNC(=O)CCN1C(=O)CC([*:1])C1=O)NC(=O)CCN1C(=O)CC([*:2])C1=O]}$PEPTIDE1,CHEM1,14:R3-1:R1|PEPTIDE1,CHEM1,21:R3-1:R2$$$V2.0), the EC50 was determined as 0.098 nM in experiment [1] and 1.8 nM in experiment [2]. The Ratio EC50 in experiment [3] was 18.4.

Consider `CC[C@H](C)[C@H](NC(=O)[C@H](CC(C)C)NC(=O)[C@H](Cc1c[nH]c2ccccc12)NC(=O)[C@H](CCC(=O)O)NC(=O)[C@@H](NC(=O)[C@H](Cc1ccccc1)NC(=O)[C@@H]1CSC2CC(=O)N(CCC(=O)NC(C(=O)NCCCCCCNC(=O)COCCOCCNC(=O)COCCOCCNC(=O)CCC(NC(=O)CCCCCCCCCCCCCCCCC(=O)O)C(=O)O)CCCCNC(=O)CCN3C(=O)CC(SC[C@H](NC(=O)[C@H](Cc4ccc(O)cc4)NC(=O)[C@H](CCC(=O)O)NC(=O)[C@@H](NC(=O)[C@@H](NC(=O)[C@H](CC(=O)O)NC(=O)[C@H](CC(N)=O)NC(=O)[C@@H](NC(=O)[C@H](Cc4ccc(O)cc4)NC(=O)[C@@H](NC(=O)CNC(=O)[C@H](CCC(=O)O)NC(=O)C(C)(C)NC(=O)[C@@H](N)Cc4c[nH]cn4)[C@@H](C)O)[C@@H](C)O)C(C)C)[C@@H](C)O)C(=O)N[C@@H](CCC(=O)O)C(=O)N[C@@H](CCC(=O)O)C(=O)N[C@@H](CCC(=O)O)C(=O)N[C@@H](C)C(=O)N[C@@H](C)C(=O)N[C@@H](CCCCN)C(=O)N1)C3=O)C2=O)[C@@H](C)CC)C(=O)N[C@@H](CCCCN)C(=O)NCC(=O)N[C@@H](CCCCN)C(N)=O` (some centres not stated) (HELM PEPTIDE1{H.[Aib].E.G.T.Y.T.N.D.V.T.E.Y.C.E.E.E.A.A.K.C.F.I.E.W.L.I.K.G.K.[am]}|CHEM1{[O=C(O)CCCCCCCCCCCCCCCCC(=O)NC(CCC(=O)NCCOCCOCC(=O)NCCOCCOCC(=O)NCCCCCCNC(=O)C(CCCCNC(=O)CCN1C(=O)CC([*:1])C1=O)NC(=O)CCN1C(=O)CC([*:2])C1=O)C(=O)O]}$PEPTIDE1,CHEM1,14:R3-1:R1|PEPTIDE1,CHEM1,21:R3-1:R2$$$V2.0), for which the EC50 worked out at 0.16 nM in experiment [1] and 14.5 nM in experiment [2]. Further, the Ratio EC50 in experiment [3] came to 90.6.

Turning to `CC[C@H](C)[C@H](NC(=O)[C@H](CC(C)C)NC(=O)[C@H](Cc1c[nH]c2ccccc12)NC(=O)[C@H](CCC(=O)O)NC(=O)[C@@H](NC(=O)[C@H](Cc1ccccc1)NC(=O)[C@@H]1CSC2CC(=O)N(CCC(=O)NC(C(=O)NCCCCCCNC(=O)COCCOCCNC(=O)CCCCCCCCCCCCCCCCC(=O)O)CCCCNC(=O)CCN3C(=O)CC(SC[C@H](NC(=O)[C@H](Cc4ccc(O)cc4)NC(=O)[C@H](CCC(=O)O)NC(=O)[C@@H](NC(=O)[C@@H](NC(=O)[C@H](CC(=O)O)NC(=O)[C@H](CC(N)=O)NC(=O)[C@@H](NC(=O)[C@H](Cc4ccc(O)cc4)NC(=O)[C@@H](NC(=O)CNC(=O)[C@H](CCC(=O)O)NC(=O)C(C)(C)NC(=O)[C@@H](N)Cc4c[nH]cn4)[C@@H](C)O)[C@@H](C)O)C(C)C)[C@@H](C)O)C(=O)N[C@@H](CCC(=O)O)C(=O)N[C@@H](CCC(=O)O)C(=O)N[C@@H](CCC(=O)O)C(=O)N[C@@H](C)C(=O)N[C@@H](C)C(=O)N[C@@H](CCCCN)C(=O)N1)C3=O)C2=O)[C@@H](C)CC)C(=O)N[C@@H](CCCCN)C(=O)NCC(=O)N[C@@H](CCCCN)C(N)=O` (some centres not stated) (HELM PEPTIDE1{H.[Aib].E.G.T.Y.T.N.D.V.T.E.Y.C.E.E.E.A.A.K.C.F.I.E.W.L.I.K.G.K.[am]}|CHEM1{[O=C(O)CCCCCCCCCCCCCCCCC(=O)NCCOCCOCC(=O)NCCCCCCNC(=O)C(CCCCNC(=O)CCN1C(=O)CC([*:1])C1=O)NC(=O)CCN1C(=O)CC([*:2])C1=O]}$PEPTIDE1,CHEM1,14:R3-1:R1|PEPTIDE1,CHEM1,21:R3-1:R2$$$V2.0), the figures for the EC50 in experiment [1] and in experiment [2] were 0.13 nM and 1.4 nM, respectively. Moreover, the Ratio EC50 in experiment [3] worked out at 10.8.
